Source: patent US9499550B2 (BRISTOL-MYERS SQUIBB COMPANY, priority 2012, dated 2016)

Tests used:
[1] = system: HCV genotype 1b (Con1) replicon in HUH-7 cells; experiment: HCV replicon luciferase reporter assay, genotype 1b; assay type: cell-based; settings: Hepatitis C virus, Huh-7, 72 h, HCV genotype 1b replicon luciferase assay, 3 days incubation, range class, read-out: LE_1b (EC50, range)
Method in brief: (§1)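 Replicon inhibition for both genotypes was measured as Renilla luciferase signal (EnduRen, 7.5 μM final, 2 h) after 3-day, 37° C exposure of replicon-bearing HUH-7 cells in 4% FCS DMEM, 0.5% DMSO. The 1b construct carries S1179I; the 1a H77 construct carries P1496L and S2204I. Twenty-point, 3-fold dilutions were fitted four-parametrically for EC50, and CC50 was taken from multiplexed Cell Titer-Blue.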

[2] = system: HCV genotype 1a (H77 strain) replicon in HUH-7 cells; experiment: HCV replicon luciferase reporter assay, genotype 1a; assay type: cell-based; settings: Hepatitis C virus, Huh-7, 72 h, HCV genotype 1a replicon luciferase assay, 3 days incubation, range class, read-out: LE_1a (EC50, range)
Method in brief: as §1

Compound | EC50 [1] [nM] | EC50 [2] [nM]
C[C@@H]1CC/C=C\[C@@H]2C[C@@]2(C(=O)NS(=O)(=O)C2CC2)NC(=O)[C@@H]2C[C@@H](Oc3nc(OCC(F)F)cc4c(Cl)cccc34)CN2C(=O)[C@@H](NC(=O)OC(C)(C)C)[C@H](C)C1 [Compound 1076, tert-butyl ((2R,6S,7R,9R,13aS,14aR,16aS,Z)-2-((5-chloro-3-(2,2-difluoroethoxyl)isoquinolin-1-yl)oxy)-14a-((cyclopropylsulfonyl)carbamoyl)-7,9-dimethyl-5,16-dioxo-1,2,3,5,6,7,8,9,10,11,13a,14,14a,15,16,16a-hexadecahydrocyclopropa[e]pyrrolo[1,2-a][1,4]diazacyclopentadecin-6-yl)carbamate] | < 5.46 | < 5.46
CCCOc1cc2c(Cl)cccc2c(O[C@@H]2C[C@H]3C(=O)N[C@]4(C(=O)NS(=O)(=O)C5(C)CC5)C[C@H]4/C=C\CC[C@H](C)C[C@@H](C)[C@H](NC(=O)OC(C)(C)C(F)(F)F)C(=O)N3C2)n1 [Compound 1077, 1,1,1-trifluoro-2-methylpropan-2-yl((2R,6S,7R,9S,13aS,14aR,16aS,Z)-2-((5-chloro-3-propoxyisoquinolin-1-yl)oxy)-7,9-dimethyl-14a-(((1-methylcyclopropyl)sulfonyl)carbamoyl)-5,16-dioxo-1,2,3,5,6,7,8,9,10,11,13a,14,14a,15,16,16a-hexadecahydrocyclopropa[e]pyrrolo[1,2-a][1,4]diazacyclopentadecin-6-yl)carbamate] | < 5.46 | 4.82 to 103
CCCOc1cc2c(Cl)cccc2c(O[C@@H]2C[C@H]3C(=O)N[C@]4(C(=O)NS(=O)(=O)C5(C)CC5)C[C@H]4/C=C\CC[C@@H](C)C[C@@H](C)[C@H](NC(=O)OC(C)(C)C(F)(F)F)C(=O)N3C2)n1 [Compound 1078, 1,1,1-trifluoro-2-methylpropan-2-yl((2R,6S,7R,9R,13aS,14aR,16aS,Z)-2-((5-chloro-3-propoxyisoquinolin-1-yl)oxy)-7,9-dimethyl-14a-(((1-methylcyclopropyl)sulfonyl)carbamoyl)-5,16-dioxo-1,2,3,5,6,7,8,9,10,11,13a,14,14a,15,16,16a-hexadecahydrocyclopropa[e]pyrrolo[1,2-a][1,4]diazacyclopentadecin-6-yl)carbamate] | < 5.46 | < 5.46
CCCOc1cc2c(Cl)cccc2c(O[C@@H]2C[C@H]3C(=O)N[C@]4(C(=O)NS(=O)(=O)C5(C)CC5)C[C@H]4/C=C\CC[C@H](C)C[C@@H](C)[C@H](NC(=O)O[C@H](C)C(F)(F)F)C(=O)N3C2)n1 [Compound 1079, (R)-1,1,1-trifluoropropan-2-yl ((2R,6S,7R,9S,13aS,14aR,16aS,Z)-2-((5-chloro-3-propoxyisoquinolin-1-yl)oxy)-7,9-dimethyl-14a-(((1-methylcyclopropyl)sulfonyl)carbamoyl)-5,16-dioxo-1,2,3,5,6,7,8,9,10,11,13a,14,14a,15,16,16a-hexadecahydrocyclopropa[e]pyrrolo[1,2-a][1,4]diazacyclopentadecin-6-yl)carbamate] | < 5.46 | 4.82 to 103
CCCOc1cc2c(Cl)cccc2c(O[C@@H]2C[C@H]3C(=O)N[C@]4(C(=O)NS(=O)(=O)C5(C)CC5)C[C@H]4/C=C\CC[C@@H](C)C[C@@H](C)[C@H](NC(=O)O[C@H](C)C(F)(F)F)C(=O)N3C2)n1 [Compound 1080, (R)-1,1,1-trifluoropropan-2-yl ((2R,6S,7R,9R,13aS,14aR,16aS,Z)-2-((5-chloro-3-propoxyisoquinolin-1-yl)oxy)-7,9-dimethyl-14a-(((1-methylcyclopropyl)sulfonyl)carbamoyl)-5,16-dioxo-1,2,3,5,6,7,8,9,10,11,13a,14,14a,15,16,16a-hexadecahydrocyclopropa[e]pyrrolo[1,2-a][1,4]diazacyclopentadecin-6-yl)carbamate] | < 5.46 | < 5.46
CCCOc1cc2c(Cl)cccc2c(O[C@@H]2C[C@H]3C(=O)N[C@]4(C(=O)NS(=O)(=O)C5CC5)C[C@H]4/C=C\CC[C@H](C)C[C@@H](C)[C@H](NC(=O)O[C@H](C)C(F)(F)F)C(=O)N3C2)n1 [Compound 1081, (R)-1,1,1-trifluoropropan-2-yl ((2R,6S,7R,9S,13aS,14aR,16aS,Z)-2-((5-chloro-3-propoxyisoquinolin-1-yl)oxy)-14a-((cyclopropylsulfonyl)carbamoyl)-7,9-dimethyl-5,16-dioxo-1,2,3,5,6,7,8,9,10,11,13a,14,14a,15,16,16a-hexadecahydrocyclopropa[e]pyrrolo[1,2-a][1,4]diazacyclopentadecin-6-yl)carbamate] | < 5.46 | 4.82 to 103
CCCOc1cc2c(Cl)cccc2c(O[C@@H]2C[C@H]3C(=O)N[C@]4(C(=O)NS(=O)(=O)C5CC5)C[C@H]4/C=C\CC[C@@H](C)C[C@@H](C)[C@H](NC(=O)O[C@H](C)C(F)(F)F)C(=O)N3C2)n1 [Compound 1082, (R)-1,1,1-trifluoropropan-2-yl ((2R,6S,7R,9R,13aS,14aR,16aS,Z)-2-((5-chloro-3-propoxyisoquinolin-1-yl)oxy)-14a-((cyclopropylsulfonyl)carbamoyl)-7,9-dimethyl-5,16-dioxo-1,2,3,5,6,7,8,9,10,11,13a,14,14a,15,16,16a-hexadecahydrocyclopropa[e]pyrrolo[1,2-a][1,4]diazacyclopentadecin-6-yl)carbamate] | < 5.46 | < 5.46
CCCOc1cc2c(Cl)cccc2c(O[C@@H]2C[C@H]3C(=O)N[C@]4(C(=O)NS(=O)(=O)C5CC5)C[C@H]4/C=C\CC[C@H](C)C[C@@H](C)[C@H](NC(=O)OC(C)(C)C(F)(F)F)C(=O)N3C2)n1 [Compound 1083, 1,1,1-trifluoro-2-methylpropan-2-yl((2R,6S,7R,9S,13aS,14aR,16aS,Z)-2-((5-chloro-3-propoxyisoquinolin-1-yl)oxy)-14a-((cyclopropylsulfonyl)carbamoyl)-7,9-dimethyl-5,16-dioxo-1,2,3,5,6,7,8,9,10,11,13a,14,14a,15,16,16a-hexadecahydrocyclopropa[e]pyrrolo[1,2-a][1,4]diazacyclopentadecin-6-yl)carbamate] | < 5.46 | 4.82 to 103
CCCOc1cc2c(Cl)cccc2c(O[C@@H]2C[C@H]3C(=O)N[C@]4(C(=O)NS(=O)(=O)C5CC5)C[C@H]4/C=C\CC[C@@H](C)C[C@@H](C)[C@H](NC(=O)OC(C)(C)C(F)(F)F)C(=O)N3C2)n1 [Compound 1084, 1,1,1-trifluoro-2-methylpropan-2-yl((2R,6S,7R,9R,13aS,14aR,16aS,Z)-2-((5-chloro-3-propoxyisoquinolin-1-yl)oxy)-14a-((cyclopropylsulfonyl)carbamoyl)-7,9-dimethyl-5,16-dioxo-1,2,3,5,6,7,8,9,10,11,13a,14,14a,15,16,16a-hexadecahydrocyclopropa[e]pyrrolo[1,2-a][1,4]diazacyclopentadecin-6-yl)carbamate] | < 5.46 | < 5.46
CCCOc1cc2c(Cl)cccc2c(O[C@@H]2C[C@H]3C(=O)N[C@]4(C(=O)NS(=O)(=O)C5CC5)C[C@H]4/C=C\CC[C@H](C)C[C@@H](C)[C@H](NC(=O)OC4C[C@@H]5C[C@H]5C4)C(=O)N3C2)n1 [Compound 1085, (1S,5S)-bicyclo[3.1.0]hexan-3-yl((2R,6S,7R,9S,13aS,14aR,16aS,Z)-2-((5-chloro-3-propoxyisoquinolin-1-yl)oxy)-14a-((cyclopropylsulfonyl)carbamoyl)-7,9-dimethyl-5,16-dioxo-1,2,3,5,6,7,8,9,10,11,13a,14,14a,15,16,16a-hexadecahydrocyclopropa[e]pyrrolo[1,2-a][1,4]diazacyclopentadecin-6-yl)carbamate] | < 5.46 | < 5.46
CCCOc1cc2c(Cl)cccc2c(O[C@@H]2C[C@H]3C(=O)N[C@]4(C(=O)NS(=O)(=O)C5CC5)C[C@H]4/C=C\CC[C@@H](C)C[C@@H](C)[C@H](NC(=O)OC4C[C@@H]5C[C@H]5C4)C(=O)N3C2)n1 [Compound 1086, (1S,5S)-bicyclo[3.1.0]hexan-3-yl((2R,6S,7R,9R,13aS,14aR,16aS,Z)-2-((5-chloro-3-propoxyisoquinolin-1-yl)oxy)-14a-((cyclopropylsulfonyl)carbamoyl)-7,9-dimethyl-5,16-dioxo-1,2,3,5,6,7,8,9,10,11,13a,14,14a,15,16,16a-hexadecahydrocyclopropa[e]pyrrolo[1,2-a][1,4]diazacyclopentadecin-6-yl)carbamate] | < 5.46 | < 5.46
CCCOc1cc2c(Cl)cccc2c(O[C@@H]2C[C@H]3C(=O)N[C@]4(C(=O)NS(=O)(=O)C5(C)CC5)C[C@H]4/C=C\CC[C@H](C)C[C@@H](C)[C@H](NC(=O)OC4C[C@@H]5C[C@H]5C4)C(=O)N3C2)n1 [Compound 1087, (1S,5S)-bicyclo[3.1.0]hexan-3-yl((2R,6S,7R,9S,13aS,14aR,16aS,Z)-2-((5-chloro-3-propoxyisoquinolin-1-yl)oxy)-7,9-dimethyl-14a-(((1-methylcyclopropyl)sulfonyl)carbamoyl)-5,16-dioxo-1,2,3,5,6,7,8,9,10,11,13a,14,14a,15,16,16a-hexadecahydrocyclopropa[e]pyrrolo[1,2-a][1,4]diazacyclopentadecin-6-yl)carbamate] | < 5.46 | 4.82 to 103
CCCOc1cc2c(Cl)cccc2c(O[C@@H]2C[C@H]3C(=O)N[C@]4(C(=O)NS(=O)(=O)C5(C)CC5)C[C@H]4/C=C\CC[C@@H](C)C[C@@H](C)[C@H](NC(=O)OC4C[C@@H]5C[C@H]5C4)C(=O)N3C2)n1 [Compound 1088, (1S,5S)-bicyclo[3.1.0]hexan-3-yl((2R,6S,7R,9R,13aS,14aR,16aS,Z)-2-((5-chloro-3-propoxyisoquinolin-1-yl)oxy)-7,9-dimethyl-14a-(((1-methylcyclopropyl)sulfonyl)carbamoyl)-5,16-dioxo-1,2,3,5,6,7,8,9,10,11,13a,14,14a,15,16,16a-hexadecahydrocyclopropa[e]pyrrolo[1,2-a][1,4]diazacyclopentadecin-6-yl)carbamate] | < 5.46 | < 5.46
